The values below are quoted from earlier work in patent US11541018B2 (priority 2016, dated 2023).

For data set [1] the following is noted: active agent (base).
For data set [2] the following is noted: active agent (base). This is another data set of the same source.

Consider ropinole, for which, in data set [1], the Water solubility was 133 mg/mL. The lipophilicity (LogP) (usually a log measure of how a compound divides between an organic and an aqueous phase) in data set [2] was 2.7.
